# Source: patent US4727082A, “Dihydropyridine compounds and pharmaceutical compositions containing them” (Yamanouchi Pharmaceutical Co., Ltd., priority 1984, dated 1988)
# Read-outs that look alike come from different tables or passages of the source.
# Tests used:
# [1] = system: coronary artery; assay: Coronary vasodilating effects, intracoronary injection in anesthetized dogs; type: in vivo, Mongrel dogs; conditions: for Duration of action of coronary vasodilating effect: intracoronary injection; for ED100 pap (dose for 100% increase of Cor. BF): intracoronary, maximum response to papaverine 300 μg ia = 100%
# Experimental: Mongrel dogs of either sex were anesthetized and ventilated as previously described. A thoracotomy was performed at the 4th intercostal space. Following an intravenous injection of […] (1000 units/kg), blood from the distal end of the cannulated carotid artery was pumped into circumflex branch of the left coronary artery using a servocontrolled peristaltic pump which maintained a constant perfusion pressure of 120 mmHg by means of a pump controller. An electromagnetic flow probe was inserted in the circuit to record blood flow through the cannulated coronary artery. The test compounds were administered directly into the rubber tubing connected close to the coronary artery cannula. Coronary vasodilating potency of the test compounds was by calculating the dose required to produce 100% increase of Cor. BF (ED100 pap), when the maximum responses to papaverine at a dose of 300 μg ia was expressed at 100% response.
# [2] = Hemodynamic effects in anesthetized open-chest dogs; type: in vivo, Mongrel dogs; conditions: Canis lupus familiaris; for change in vivo at 0.3 mg/kg: 0.3 mg/kg iv; for change in vivo at 0.1 mg/kg: 0.1 mg/kg iv; for change in vivo at 1 mg/kg: 1.0 mg/kg iv
# Experimental: Mongrel dogs of either sex were anesthetized with pentobarbital sodium (30 mg/kg iv). The animals were artificially ventilated with room air. The chest was opened at the left 4th intercostal space. Mean arterial blood pressure (MBP), heart rate (HR), left ventricular pressure (LVP), max. dLVP/dt, mean pulmonary arterial blood pressure (MPAP), cardiac output (CO) and coronary blood flow (Cor. BF) were measured. The test compounds were injected into the femoral vein. Hemodynamic effects of these compounds were compared with that of well known Ca^2+ -antagonists. Table 1 (column 1) indicates the percent changes of MBP and Cor. BF from control values induced by intravenous injection of test compounds.
# [3] = biological target: T1, Beta-adrenoceptor (Rattus norvegicus, UniProt P18090); assay: Intrinsic sympathomimetic activity (ISA), increase in heart rate; type: in vivo, male Wistar rats; conditions: increase in HR, reserpinized rats, iv
# T1 construct: from tissue; host or cells: heart in situ of anesthetized male Wistar rats (in vivo, i.v. dosing)
# T1 sequence (P18090 whole entry): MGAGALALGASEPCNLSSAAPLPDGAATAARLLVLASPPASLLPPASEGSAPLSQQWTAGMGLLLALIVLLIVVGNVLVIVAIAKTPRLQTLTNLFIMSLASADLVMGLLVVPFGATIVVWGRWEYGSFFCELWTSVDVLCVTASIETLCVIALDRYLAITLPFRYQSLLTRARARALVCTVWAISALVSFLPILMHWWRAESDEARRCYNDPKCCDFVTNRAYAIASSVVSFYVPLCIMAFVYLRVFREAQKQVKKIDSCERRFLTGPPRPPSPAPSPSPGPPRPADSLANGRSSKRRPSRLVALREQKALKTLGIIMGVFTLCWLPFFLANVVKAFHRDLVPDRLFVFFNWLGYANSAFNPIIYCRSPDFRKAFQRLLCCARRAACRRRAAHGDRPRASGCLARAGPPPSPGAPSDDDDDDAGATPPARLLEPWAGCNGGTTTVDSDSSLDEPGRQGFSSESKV
# Experimental: (§1) The rats were pretreated with reserpine (8 mg/kg ip), 18 hr before experiments. […] The heart rate was measured with a cardiotachometer triggered by the QRS of the ECG (lead II) and recorded on a polygraph. After the control response to isoproterenol at a dose of 0.1 μg/kg iv was obtained, the test compound was injected iv in increasing doses at 20 min intervals.
# In this series of experiments, intrinsic sympathomimetic activity (ISA) was also evaluated. The results are shown in Table 1 (column 4), wherein "-" represents that an increase in HR was scarcely observed, "+" represents an increase in HR of 10 to 19 beats/min, "++" represents an increase in HR of 20 to 29 beats/min, and "+++" represents an increase in HR of above 30 beats/min.
# [4] = biological target: T1, Beta-adrenoceptor; assay: Beta-adrenoceptor blocking effects: blockade of positive chronotropic response to isoproterenol; type: in vivo, male Wistar rats; conditions: read-out: Beta Blocking ED50
# Experimental: as §1
# [5] = read-out: Cor. BF, percent change from control
# [6] = read-out: MBP, percent change from control
# [7] = 50% blockade of chronotropic response to isoproterenol 0.1 μg/kg iv, reserpinized, vagotomized rats, cumulative dose
Compound,Duration of action of coronary vasodilating effect [1],ED100 pap (dose for 100% increase of Cor. BF) [1],"change in vivo at 0.3 mg/kg [2, 5]","change in vivo at 0.3 mg/kg [2, 6]",ISA [3],"ED50 [4, 7]","change in vivo at 0.1 mg/kg [2, 5]","change in vivo at 0.1 mg/kg [2, 6]","change in vivo at 1 mg/kg [2, 5]","change in vivo at 1 mg/kg [2, 6]",ED50 ([4]; iv)
"COc1ccc([C@@H]2Sc3ccccc3N(CCN(C)C)C(=O)[C@@H]2OC(C)=O)cc1 [Diltiazem, reference compound]",20 min,51 μg ia,90%,-30%,,,,,,,
"COC(=O)C1=C(C)NC(C)=C(C(=O)OC)C1c1cc([N+](=O)[O-])ccc1OCCNCC(O)COc1ccccc1 (stereo not drawn) [Example 1, dimethyl 4-[2-[2-(2-hydroxy-3-phenoxypropylamino)ethoxy]-5-nitrophenyl]-2,6-dimethyl-1,4-dihydropyridine-3,5-dicarboxylate]",15 min,75 μg ia,69%,-17%,+++ (an increase in HR of above 30 beats/min),0.13 mg/kg,21%,-7%,,,
"COC(=O)C1=C(C)NC(C)=C(C(=O)OC)C1c1cc([N+](=O)[O-])ccc1OCCCNCC(O)COc1ccccc1 (stereo not drawn) [Example 8, dimethyl 4-[2-[3-(2-hydroxy-3-phenoxypropylamino)propoxy]-5-nitrophenyl]-2,6-dimethyl-1,4-dihydropyridine-3,5-dicarboxylate]",60 min,645 μg ia,,,+ (an increase in HR of 10 to 19 beats/min),0.31 mg/kg,,,10%,-29%,
"CCOC(=O)C1=C(C)NC(C)=C(C(=O)OC)C1c1cc([N+](=O)[O-])ccc1OCCCCNCC(O)COc1ccccc1 (stereo not drawn) [Example 10, ethyl methyl 4-[2-[4-(2-hydroxy-3-phenoxypropylamino)butoxy]-5-nitrophenyl]-2,6-dimethyl-1,4-dihydropyridine-3,5-dicarboxylate]",> 60 min,400 μg ia,26%,-12%,-,0.73 mg/kg,,,,,
"COC(=O)C1=C(C)NC(C)=C(C(=O)OC)C1c1cc([N+](=O)[O-])ccc1OCCCCCNCC(O)COc1ccccc1 (stereo not drawn) [Example 12, dimethyl 4-[2-[5-(2-hydroxy-3-phenoxypropylamino)pentyloxy]-5-nitrophenyl]-2,6-dimethyl-1,4-dihydropyridine-3,5-dicarboxylate]",> 60 min,475 μg ia,14%,-18%,-,2.58 mg/kg,,,,,
"COC(=O)C1=C(C)NC(C)=C(C(=O)OC)C1c1cc([N+](=O)[O-])ccc1OCCCCNCC(O)COc1ccccc1 (stereo not drawn) [Example 15, dimethyl 4-[2-[4-(2-hydroxy-3-phenoxypropylamino)butoxy]-5-nitrophenyl]-2,6-dimethyl-1,4-dihydropyridine-3,5-dicarboxylate]",> 60 min,228 μg ia,,,-,0.7 mg/kg,,,96%,-33%,
"COC(=O)C1=C(C)NC(C)=C(C(=O)OC)C1c1cc([N+](=O)[O-])ccc1OCCCCNC[C@H](O)COc1ccccc1 [Example 16, (S)-(-)-dimethyl 4-[2-[4-(2-hydroxy-3-phenoxypropylamino)butoxy]-5-nitrophenyl]-2,6-dimethyl-1,4-dihydropyridine-3,5-dicarboxylate]",> 60 min,162 μg ia,,,-,0.39 mg/kg,,,97%,-31%,
"COC(=O)C1=C(C)NC(C)=C(C(=O)OC)C1c1cc([N+](=O)[O-])ccc1OCCCCNC[C@@H](O)COc1ccccc1 [Example 17, (R)-(+)-dimethyl 4-[2-[4-(2-hydroxy-3-phenoxypropylamino)butoxy]-5-nitrophenyl]-2,6-dimethyl-1,4-dihydropyridine-3,5-dicarboxylate]",> 60 min,158 μg ia,,,-,3.53 mg/kg,,,94%,-35%,
"CCOC(=O)C1=C(C)NC(C)=C(C(=O)OCC)C1c1cc([N+](=O)[O-])ccc1OCCCCNCC(O)COc1ccccc1 (stereo not drawn) [Example 18, diethyl 4-[2-[4-(2-hydroxy-3-phenoxypropylamino)butoxy]-5-nitrophenyl]-2,6-dimethyl-1,4-dihydropyridine-3,5-dicarboxylate]",60 min,285 μg ia,20%,-13%,-,3.11 mg/kg,,,,,
"COC(=O)C1=C(C)NC(C)=C(C(=O)OC)C1c1cc(S(C)(=O)=O)ccc1OCCCCNCC(O)COc1ccccc1 (stereo not drawn) [Example 23, dimethyl 4-[2-[4-(2-hydroxy-3-phenoxypropylamino)butoxy]-5-methylsulfonylphenyl]-2,6-dimethyl-1,4-dihydropyridine-3,5-dicarboxylate]",> 60 min,780 μg ia,,,-,0.03 mg/kg,,,64%,-32%,
"COC(=O)C1=C(C)NC(C)=C(C(=O)OC)C1c1cc(Cl)ccc1OCCCCNCC(O)COc1ccccc1 (stereo not drawn) [Example 24, dimethyl 4-[5-chloro-2-[4-(2-hydroxy-3-phenoxypropylamino)butoxy]phenyl]-2,6-dimethyl-1,4-dihydropyr idine-3,5-dicarboxylate]",60 min,245 μg ia,,,-,1.5 mg/kg,,,62%,-33%,
"COC(=O)C1=C(C)NC(C)=C(C(=O)OC)C1c1cc(OC)ccc1OCCCCNCC(O)COc1ccccc1 (stereo not drawn) [Example 26, dimethyl 4-[2-[4-(2-hydroxy-3-phenoxypropylamino)butoxy]-5-methoxyphenyl]-2,6-dimethyl-1,4-dihydropyridine-3,5-dicarboxylate]",40 min,600 μg ia,,,-,0.53 mg/kg,,,43%,-38%,
"COC(=O)C1=C(C)NC(C)=C(C(=O)OC)C1c1cc(SC)ccc1OCCCCNCC(O)COc1ccccc1.Cl (stereo not drawn) [Example 28, dimethyl 4-[2-[4-(2-hydroxy-3-phenoxypropylamino)butoxy]-5-methylthiophenyl]-2,6-dimethyl-1,4-dihydropyridine-3,5-dicarboxylate hydrochloride]",30 min,555 μg ia,,,-,,,,70%,-28%,0.27 mg/kg
"COC(=O)C1=C(C)NC(C)=C(C(=O)OC)C1c1ccccc1OCCCCNCC(O)COc1ccccc1 (stereo not drawn) [Example 34, dimethyl 4-[o-[4-(2-hydroxy-3-phenoxypropylamino)butoxy]phenyl]-2,6-dimethyl-1,4-dihydropyridine-3,5-dicarboxylate]",> 60 min,175 μg ia,3%,-18%,-,0.9 mg/kg,,,,,
"COC(=O)C1=C(C)NC(C)=C(C(=O)OC)C1c1cc([N+](=O)[O-])ccc1OCCCCNCC(O)COc1ccc(NC(C)=O)cc1 (stereo not drawn) [Example 42, dimethyl 4-[2-[4-[3-(p-acetamidophenoxy)-2-hydroxypropylamino]butoxy]-5-nitrophenyl]-2,6-dimethyl-1,4-dihydropyridine-3,5-dicarboxylate]",> 60 min,515 μg ia,,,-,0.5 mg/kg,,,8%,-13%,
